Assay results published in EP0427693A1, “Method for azide displacement of alpha-triflates of 1,5-lactones” (MONSANTO COMPANY, priority 1989, dated 1991).

What was measured:
Assay type in all cases: biochemical
[1] = target: T1, human liver α-mannosidase (Lysosomal) (Homo sapiens, UniProt O00754); experiment: Human liver glycosidase inhibition, lysosomal α-mannosidase; conditions: 1 mM concentration of inhibitor; hydrolysis of 4-umbelliferyl pyrranosides; read-out: % Inhibition α-Mannosidases Lysosomal
T1 construct: from tissue; host or cells: human liver
T1 sequence (O00754 50-1011): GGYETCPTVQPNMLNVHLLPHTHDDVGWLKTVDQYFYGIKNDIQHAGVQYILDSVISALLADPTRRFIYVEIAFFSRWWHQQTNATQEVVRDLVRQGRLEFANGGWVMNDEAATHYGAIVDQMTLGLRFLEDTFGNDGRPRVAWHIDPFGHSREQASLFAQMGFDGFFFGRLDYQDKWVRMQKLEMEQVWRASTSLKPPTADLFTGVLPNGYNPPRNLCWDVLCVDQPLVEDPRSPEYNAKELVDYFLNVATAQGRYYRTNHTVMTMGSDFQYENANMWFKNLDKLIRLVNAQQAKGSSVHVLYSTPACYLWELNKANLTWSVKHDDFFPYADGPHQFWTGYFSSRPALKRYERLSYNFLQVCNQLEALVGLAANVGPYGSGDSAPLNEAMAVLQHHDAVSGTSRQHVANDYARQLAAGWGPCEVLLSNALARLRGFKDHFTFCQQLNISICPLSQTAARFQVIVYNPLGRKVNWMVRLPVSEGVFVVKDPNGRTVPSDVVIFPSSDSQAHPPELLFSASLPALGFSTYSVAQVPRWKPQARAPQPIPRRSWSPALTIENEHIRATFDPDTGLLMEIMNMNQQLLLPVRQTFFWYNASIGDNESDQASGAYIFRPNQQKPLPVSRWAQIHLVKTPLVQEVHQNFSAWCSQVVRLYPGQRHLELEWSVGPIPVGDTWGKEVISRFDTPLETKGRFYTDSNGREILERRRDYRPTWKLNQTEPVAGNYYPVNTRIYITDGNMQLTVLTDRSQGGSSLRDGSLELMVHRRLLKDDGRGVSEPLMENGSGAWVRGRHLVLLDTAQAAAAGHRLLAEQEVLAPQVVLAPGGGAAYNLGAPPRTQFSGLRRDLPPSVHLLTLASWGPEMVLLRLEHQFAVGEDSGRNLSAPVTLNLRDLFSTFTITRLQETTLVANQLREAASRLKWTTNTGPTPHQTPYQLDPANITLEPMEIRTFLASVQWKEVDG

[2] = target: T2, human liver α-mannosidase (Golgi II) (Homo sapiens, UniProt Q16706); experiment: Human liver glycosidase inhibition, Golgi II α-mannosidase; conditions: 1 mM concentration of inhibitor; hydrolysis of 4-umbelliferyl pyrranosides; read-out: % Inhibition α-Mannosidases Golgi II
T2 construct: from tissue; host or cells: human liver
T2 sequence (Q16706 1-1144): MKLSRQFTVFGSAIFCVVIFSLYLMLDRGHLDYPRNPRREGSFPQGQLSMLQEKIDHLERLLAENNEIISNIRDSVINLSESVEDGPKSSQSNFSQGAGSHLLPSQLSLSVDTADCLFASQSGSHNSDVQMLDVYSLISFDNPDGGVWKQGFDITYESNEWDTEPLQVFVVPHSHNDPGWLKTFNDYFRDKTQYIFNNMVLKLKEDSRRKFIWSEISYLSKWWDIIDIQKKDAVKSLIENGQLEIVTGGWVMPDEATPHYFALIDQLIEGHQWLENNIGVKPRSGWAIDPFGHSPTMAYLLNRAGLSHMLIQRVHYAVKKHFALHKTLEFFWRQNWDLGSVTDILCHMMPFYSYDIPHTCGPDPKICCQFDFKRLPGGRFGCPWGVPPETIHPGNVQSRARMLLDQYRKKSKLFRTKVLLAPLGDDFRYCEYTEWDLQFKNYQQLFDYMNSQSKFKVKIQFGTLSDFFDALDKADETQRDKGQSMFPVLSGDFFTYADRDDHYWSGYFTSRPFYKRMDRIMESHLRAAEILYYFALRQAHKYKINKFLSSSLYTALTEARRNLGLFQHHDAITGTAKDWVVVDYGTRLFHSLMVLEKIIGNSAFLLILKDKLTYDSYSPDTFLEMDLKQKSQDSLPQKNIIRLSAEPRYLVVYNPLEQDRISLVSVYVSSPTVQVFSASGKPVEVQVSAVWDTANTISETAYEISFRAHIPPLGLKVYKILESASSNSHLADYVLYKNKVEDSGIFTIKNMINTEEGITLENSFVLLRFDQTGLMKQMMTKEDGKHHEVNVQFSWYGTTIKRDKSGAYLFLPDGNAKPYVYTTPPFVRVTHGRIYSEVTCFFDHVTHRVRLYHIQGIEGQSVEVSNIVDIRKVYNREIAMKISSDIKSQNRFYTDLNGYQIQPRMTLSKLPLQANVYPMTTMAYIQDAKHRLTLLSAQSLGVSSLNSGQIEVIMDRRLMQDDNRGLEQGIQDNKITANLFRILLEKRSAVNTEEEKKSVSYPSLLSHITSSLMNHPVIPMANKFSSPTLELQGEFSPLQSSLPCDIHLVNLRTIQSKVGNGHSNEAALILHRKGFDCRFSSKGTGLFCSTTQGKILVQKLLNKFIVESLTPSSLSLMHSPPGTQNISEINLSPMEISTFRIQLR

[3] = target: T3, human liver α-mannosidase (Neutral) (Homo sapiens, UniProt Q9NTJ4); experiment: Human liver glycosidase inhibition, neutral α-mannosidase; conditions: 1 mM concentration of inhibitor; hydrolysis of 4-umbelliferyl pyrranosides; read-out: % Inhibition α-Mannosidases Neutral
T3 construct: from tissue; host or cells: human liver
T3 sequence (Q9NTJ4 1-1040): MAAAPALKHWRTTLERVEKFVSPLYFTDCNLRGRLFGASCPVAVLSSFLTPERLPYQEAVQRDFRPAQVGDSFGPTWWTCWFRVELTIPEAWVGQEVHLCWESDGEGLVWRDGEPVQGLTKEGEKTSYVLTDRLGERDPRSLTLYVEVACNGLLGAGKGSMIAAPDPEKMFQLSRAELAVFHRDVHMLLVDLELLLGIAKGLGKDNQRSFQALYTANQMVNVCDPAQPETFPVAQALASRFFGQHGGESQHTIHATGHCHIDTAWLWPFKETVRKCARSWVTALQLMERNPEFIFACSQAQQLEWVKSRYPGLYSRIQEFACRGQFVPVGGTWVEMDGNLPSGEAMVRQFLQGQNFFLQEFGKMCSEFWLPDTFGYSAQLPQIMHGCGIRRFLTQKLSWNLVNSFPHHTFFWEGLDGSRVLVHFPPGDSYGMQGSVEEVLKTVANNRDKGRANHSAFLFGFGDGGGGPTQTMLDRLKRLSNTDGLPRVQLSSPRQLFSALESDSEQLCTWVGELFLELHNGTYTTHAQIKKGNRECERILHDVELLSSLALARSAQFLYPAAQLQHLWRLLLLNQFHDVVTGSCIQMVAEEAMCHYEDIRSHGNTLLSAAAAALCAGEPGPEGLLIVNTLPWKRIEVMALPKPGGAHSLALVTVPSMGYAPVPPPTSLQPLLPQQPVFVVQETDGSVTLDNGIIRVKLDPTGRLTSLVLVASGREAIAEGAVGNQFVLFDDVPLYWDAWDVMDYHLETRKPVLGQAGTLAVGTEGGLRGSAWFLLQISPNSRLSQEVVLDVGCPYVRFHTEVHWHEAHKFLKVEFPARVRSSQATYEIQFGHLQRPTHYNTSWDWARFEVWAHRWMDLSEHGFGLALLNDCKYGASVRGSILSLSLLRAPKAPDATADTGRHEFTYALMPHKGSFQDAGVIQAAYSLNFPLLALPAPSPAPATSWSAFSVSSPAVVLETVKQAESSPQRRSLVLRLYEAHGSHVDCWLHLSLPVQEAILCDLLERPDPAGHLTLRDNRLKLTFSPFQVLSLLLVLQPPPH

human liver α-fucosidase = target: T4, human liver α-fucosidase (Homo sapiens, UniProt P04066); experiment: Human liver glycosidase inhibition, α-fucosidase; conditions: for inhibition at 1000 µM: 1 mM concentration of inhibitor, hydrolysis of 4-umbelliferyl pyrranosides; for inhibition of α-fucosidase (in words): human liver glycosidases
T4 construct: from tissue; host or cells: human liver
T4 sequence (P04066 32-466): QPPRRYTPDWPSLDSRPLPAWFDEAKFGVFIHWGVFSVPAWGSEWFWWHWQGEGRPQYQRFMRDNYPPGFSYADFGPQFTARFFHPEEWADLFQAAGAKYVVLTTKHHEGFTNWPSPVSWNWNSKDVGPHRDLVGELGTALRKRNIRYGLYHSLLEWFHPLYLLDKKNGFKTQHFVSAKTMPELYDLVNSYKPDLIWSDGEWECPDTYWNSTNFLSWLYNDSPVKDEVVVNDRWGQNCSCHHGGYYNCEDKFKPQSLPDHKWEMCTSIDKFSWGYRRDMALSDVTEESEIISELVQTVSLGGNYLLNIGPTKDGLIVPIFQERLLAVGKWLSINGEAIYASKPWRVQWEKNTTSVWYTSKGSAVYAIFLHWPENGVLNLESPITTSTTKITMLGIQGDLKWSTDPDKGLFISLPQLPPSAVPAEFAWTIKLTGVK

human α-mannosidases = experiment: Human liver glycosidase inhibition, α-mannosidases; conditions: human liver glycosidases

SMILES	inhibition at 1000 µM [1] [%]	inhibition at 1000 µM [2] [%]	inhibition at 1000 µM [3] [%]	inhibition at 1000 µM (human liver α-fucosidase) [%]	inhibition of α-fucosidase (in words) (human liver α-fucosidase)	inhibition of α-mannosidases (in words) (human α-mannosidases)
OC[C@@H]1N[C@H](CO)[C@@H](O)[C@@H](O)[C@@H]1O [6-Epi-homomannojirimycin, 2,6-dideoxy-2,6-imino-L-glycero-D-talo-heptitol]	0	0	0	96	powerful inhibitors	did not inhibit any α-mannosidase
OC[C@H]1NC[C@@H](O)[C@@H](O)[C@@H]1O [Deoxymannojirimycin, reference compound]	58	45	21	91	powerful inhibitors	
OC[C@H]1N[C@H](CO)[C@@H](O)C(O)[C@@H]1O (stereo partly drawn) [Homomannojirimycin, 2,6-dideoxy-2,6-imino-D-glycero-D-talo-heptitol]	49	56	30	29	only a weak inhibitor	
